Consider one molecule from patent publication US12065446B2, “Inhibitors of Bruton's tyrosine kinase and method of their use” (JANSSEN PHARMACEUTICA NV, priority 2015, dated 2024).

Molecules are shown by their SMILES.

This assay deals with unphosphorylated-BTK kinase domain (UP-BTK), GST-tagged human BTK (389-659aa) (Homo sapiens (Human), UniProt Q06187). In words: BTK kinase lanthascreen binding assay. To be noted: competition with 50 nM Tracer 236, 60 minutes; pIC50 = negative log of the IC50 in molar. On the procedure: BTK kinase lanthascreen binding assay: A BTK kinase lanthascreen binding assay monitors compound binding to unphosphorylated-BTK kinase domain (UP-BTK), by competing with a fluorescent labeled tracer. […] Data were analyzed using Xlfit™ version 5.3 from ID Business Solutions (Guildford), Microsoft Excel add-in. pIC50 refers to the negative log of the IC50 in molar.
unphosphorylated-BTK kinase domain (UP-BTK), GST-tagged human BTK (389-659aa), sequence (Q06187 389-659): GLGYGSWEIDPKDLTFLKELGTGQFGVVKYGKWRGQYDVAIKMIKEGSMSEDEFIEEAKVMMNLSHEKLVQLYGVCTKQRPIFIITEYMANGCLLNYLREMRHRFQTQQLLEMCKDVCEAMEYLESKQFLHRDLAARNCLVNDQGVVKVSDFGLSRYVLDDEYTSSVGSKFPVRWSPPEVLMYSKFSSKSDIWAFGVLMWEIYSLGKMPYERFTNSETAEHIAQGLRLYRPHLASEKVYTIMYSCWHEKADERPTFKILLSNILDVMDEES
(Time-resolved FRET reads energy transfer from a long-lived donor to a nearby acceptor.)

Turning to `C=CC(=O)N[C@@H]1CC[C@@H](NC(=O)c2sc3nccc4c3c2NC(=O)N4c2ccc(Oc3ccccc3)nc2)C1` (racemic) [Example 188, N-((1RS, 3RS)-3-Acrylamidocyclopentyl)-4-oxo-5-(6-phenoxypyridin-3-yl)-4,5-dihydro-3H-1-thia-3,5,8-triazaacenaphthylene-2-carboxamide], the “BTK_I_binding pIC50” value is reported as 7.11.
